# Test results reported in patent EP1746087A1, “Derivates of 3-indolylmethylene having cytostatic properties” (Universitaet Regensburg, priority 2005, dated 2007).
# Values joined by “and” are separate entries in the source; they are usually repeats but may differ in a detail not shown here. Equal entries are not always repeated. Where two headings read alike, the source gives them in different places.
# Legend:
# Format in all cases: cell-based, menschlich
# [1] = system: MDA-MB-231-Brustkrebszellen; test: Growth inhibition of MDA-MB-231 breast cancer cells in vitro (cytostatic effect); conditions: MDA-MB-231 cells, read-out: IC50 Hemmwirkung auf das Wachstum
# From the text: (§1) Die cytostatische Wirkung der erfindungsgemäßen Verbindungen wurde an zwei verschiedenen menschlichen Mammacarcinomzellinien in vitro bestimmt (M. Goldbrunner et al., J.Med.Chem. 1997,40,3525). Es handelt sich dabei um die hormonunabhängige MDA-MB-231-Zellinie und die estrogensensitive MCF-7-Linie. Die MDA-MB-231-Zellen wurden auch für die durchflusszytometrischen Analysen zur Zellzyklusverteilung herangezogen (M.J.J. Jaroszeski und R. Heller, Flow Cytometry Protocols, Humana Press, 1998, Totowa New Jersey). Besonders überraschend war, dass diese synthetischen Verbindungen häufig bereits im Konzentrationsbereich von 10 bis 100 nanomolar das Wachstum von menschlichen Tumorzellen stark hemmen, obwohl sie nur ein relativ niedriges Molekulargewicht aufweisen (MG ~ 320 - 500) (Tabelle 2 und 3, Abb. 2). Potente Therapeutika, die ebenfalls in den Zellzyklus eingreifen, besitzen Molekulargewichte im Bereich von 825 (Vincristin als Base) und 850 (Paclitaxel).
# [2] = system: MDA-MB-231-Mammacarcinomzellen; test: Flow-cytometric analysis of cell cycle distribution
# From the text: as §1
# [3] = system: MCF-7-Mammacarcinomzellen; test: Growth inhibition of MCF-7 mammary carcinoma cells in vitro (cytostatic effect); conditions: MCF-7 cells, read-out: IC50 Hemmwirkung auf das Wachstum
# From the text: as §1
compound,measurement,setting,value
"CCCCc1ccc2[nH]c(-c3ccc(C(F)(F)F)cc3)c(C=NC)c2c1 [Verbindung 19, 5-n-Butyl-2-[4-(trifluormethyl)-phenyl]-indol-3-carbaldehyd-methylimin]",IC50,[1],32 nM
same,Debris %,[2]; Konz. 0.01 µM,4.4%
same,G1/G0 %,[2]; Konz. 0.01 µM,43.8%
same,G2/M %,[2]; Konz. 0.01 µM,36.6%
same,S %,[2]; Konz. 0.01 µM,14.0%
same,Debris %,[2]; Konz. 0.05 µM,14.6%
same,G1/G0 %,[2]; Konz. 0.05 µM,38.9%
same,G2/M %,[2]; Konz. 0.05 µM,30.8%
same,S %,[2]; Konz. 0.05 µM,15.3%
same,Debris %,[2]; Konz. 0.1 µM,27.1%
same,G1/G0 %,[2]; Konz. 0.1 µM,5.5%
same,G2/M %,[2]; Konz. 0.1 µM,59.3%
same,S %,[2]; Konz. 0.1 µM,7.2%
same,Debris %,[2]; Konz. 0.5 µM,20.5%
same,G1/G0 %,[2]; Konz. 0.5 µM,6.3%
same,G2/M %,[2]; Konz. 0.5 µM,59.8%
same,S %,[2]; Konz. 0.5 µM,11.1%
same,IC50,[3],140 nM
"CCCCc1ccc2[nH]c(-c3ccc(OC)cc3)c(C=NNC(=O)c3ccc(Cl)cc3)c2c1 [Verbindung 23, 5-n-Butyl-2-(4-methoxyphenyl)-indol-3-carbaldehyd-(4-chlorbenzoyl)hydrazon]",IC50,[1],90 nM
"COc1cccc(-c2[nH]c3ccc(OC)cc3c2C=C(C#N)C#N)c1 [Verbindung 12, [5-Methoxy-2-(3-methoxyphenyl)-indol-3-yl]-methylenpropandinitril]",IC50,[1]; Homo sapiens,970 nM
"CCCCCc1ccc2[nH]c(-c3ccc(OC)cc3)c(C=C(C#N)C#N)c2c1 [Verbindung 8, [2-(4-Methoxyphenyl)-5-n-pentyl-indol-3-yl]-methylenpropandinitril]",IC50,[1]; Homo sapiens,42 nM
same,IC50,"[3]; Homo sapiens, MCF7",76 nM
"COc1ccc(-c2[nH]c3cc(Cl)c(C)cc3c2C=C(C#N)C#N)cc1 [Verbindung 2, [6-Chlor-2-(4-methoxyphenyl)-5-methyl-indol-3-yl]-methylenpropandinitril]",IC50,[1],75 nM
same,IC50,[3],200 nM
"CCCCc1ccc2[nH]c(-c3ccc(CC)cc3)c(C=C(C#N)C#N)c2c1 [Verbindung 15, [5-Butyl-2-(4-ethylphenyl)-indol-3-yl]-methylenpropandinitril]",IC50,[1]; Homo sapiens,79 nM
same,Debris %,[2]; Konz. 0.01 µM,5.0%
same,G1/G0 %,[2]; Konz. 0.01 µM,53.6%
same,G2/M %,[2]; Konz. 0.01 µM,21.8%
same,S %,[2]; Konz. 0.01 µM,20.0%
same,Debris %,[2]; Konz. 0.05 µM,6.6%
same,G1/G0 %,[2]; Konz. 0.05 µM,50.3%
same,G2/M %,[2]; Konz. 0.05 µM,19.8%
same,S %,[2]; Konz. 0.05 µM,24.2%
same,Debris %,[2]; Konz. 0.1 µM,8.6%
same,G1/G0 %,[2]; Konz. 0.1 µM,51.8%
same,G2/M %,[2]; Konz. 0.1 µM,18.9%
same,S %,[2]; Konz. 0.1 µM,20.7%
same,Debris %,[2]; Konz. 0.5 µM,23.2%
same,G1/G0 %,[2]; Konz. 0.5 µM,5.7%
same,G2/M %,[2]; Konz. 0.5 µM,62.8%
same,S %,[2]; Konz. 0.5 µM,6.3%
"CCCCc1ccc2[nH]c(-c3ccc(OC)cc3)c(C=NN3C(=O)c4ccccc4C3=O)c2c1 [Verbindung 29, N-{[5-n-Butyl-2(4-methoxyphenyl)-indol-3-yl]methylenamino}-phthalimid]",IC50,[1]; Homo sapiens,30 nM
"CCCCc1ccc2[nH]c(-c3ccc(C(F)(F)F)cc3)c(C=NNC(=O)c3ccncc3)c2c1 [Verbindung 28, 5-Butyl-2-[4-(trifluormethyl)-phenyl]-indol-3-carbaldehyd-isonicotinylhydrazon]",IC50,[1],94 nM
same,Debris %,[2]; Konz. 0.05 µM,3.5%
same,G1/G0 %,[2]; Konz. 0.05 µM,49.6%
same,G2/M %,[2]; Konz. 0.05 µM,24.2%
same,S %,[2]; Konz. 0.05 µM,25.6%
same,Debris %,[2]; Konz. 0.1 µM,3.8%
same,G1/G0 %,[2]; Konz. 0.1 µM,49.3%
same,G2/M %,[2]; Konz. 0.1 µM,24.0%
same,S %,[2]; Konz. 0.1 µM,23.7%
same,Debris %,[2]; Konz. 0.5 µM,16.7%
same,G1/G0 %,[2]; Konz. 0.5 µM,16.9%
same,G2/M %,[2]; Konz. 0.5 µM,50.2%
same,S %,[2]; Konz. 0.5 µM,15.0%
"CCCCc1ccc2[nH]c(-c3ccc(OC)cc3)c(C=NNC(=O)c3ccccc3)c2c1 [Verbindung 22, 5-n-Butyl-2-(4-methoxyphenyl)-indol-3-carbaldehyd-benzoylhydrazon]",IC50,[1]; Homo sapiens,32 nM
same,IC50,"[3]; Homo sapiens, MCF7",130 nM
"CCCCc1ccc2[nH]c(-c3ccc(C(F)(F)F)cc3)c(C=NNC(=O)c3ccccn3)c2c1 [Verbindung 27, 5-n-Butyl-2-[4-(trifluormethyl)-phenyl]-indol-3-carbaldehyd-picolinylhydrazon]",IC50,[1],260 nM
"COc1ccc(-c2[nH]c3cc(C(C)C)ccc3c2C=C(C#N)C#N)cc1 [Verbindung 6, [6-Isopropyl-2-(4-methoxyphenyl)-indol-3-yl]methylenpropandinitril]",IC50,[1]; Homo sapiens,210 nM
same,IC50,"[3]; Homo sapiens, MCF7",310 nM
"COc1ccc2c(C=C(C#N)C#N)c(-c3ccc(C)cc3)[nH]c2c1 [Verbindung 3, [6-Methoxy-2-(4-methylphenyl)-indol-3-yl]-methylenpropandinitril]",IC50,[1]; Homo sapiens,180 nM
same,IC50,"[3]; Homo sapiens, MCF7",250 nM
"COc1ccc(-c2[nH]c3ccc(F)cc3c2C=C(C#N)C#N)cc1 [Verbindung 4, [5-Fluor-2-(4-methoxyphenyl)-indol-3-yl]methylenpropandinitril]",IC50,[1],400 nM
"CCCCc1ccc2[nH]c(-c3ccc(OC)cc3)c(C=C(C#N)C(=O)O)c2c1 [Verbindung 18, 3-[5-n-Butyl-2-(4-methoxyphenyl-)indol-3-yl]-2-cyanoacrylsäure]",IC50,[1],200 nM
"COc1ccc(-c2[nH]c3cc(OC)ccc3c2C=NNc2ccccc2)cc1 [Verbindung 21, 6-Methoxy-2-(4-methoxyphenyl)-indol-3-carbaldehyd-phenylhydrazon]",IC50,[1]; Homo sapiens,1000 nM
"CCCCCc1ccc2[nH]c(-c3ccc(C(F)(F)F)cc3)c(C=C(C#N)C#N)c2c1 [Verbindung 16, {5-Pentyl-2-[4-(trifluormethyl)-phenyl]-indol-3-yl}-methylenepropandinitril]",IC50,[1],78 nM
"CC[C@]1(O)C[C@H]2CN(CCc3c([nH]c4ccccc34)[C@@](C(=O)OC)(c3cc4c(cc3OC)N(C=O)[C@H]3[C@@](O)(C(=O)OC)[C@H](OC(C)=O)[C@]5(CC)C=CCN6CC[C@]43[C@@H]65)C2)C1 [Vincr., Vincristin, reference compound]",G1/G0 %,[2]; Konz. 0.1 µM,6.2% and 4.5% and 5.1% and 9.3% and 10.2% and 11.4% and 8.1%
same,G2/M %,[2]; Konz. 0.1 µM,67.0% and 76.0% and 60.7% and 53.8% and 61.0% and 48.4% and 54.1%
"CCCCc1ccc2[nH]c(-c3ccc(C)cc3)c(C=C(C#N)C#N)c2c1 [Verbindung 14, [5-Butyl-2-(4-methylphenyl)-indol-3-yl]-methylenpropandinitril]",IC50,[1]; Homo sapiens,65 nM
same,Debris %,[2]; Konz. 0.05 µM,2.5%
same,G1/G0 %,[2]; Konz. 0.05 µM,52.7%
same,G2/M %,[2]; Konz. 0.05 µM,22.4%
same,S %,[2]; Konz. 0.05 µM,24.0%
same,Debris %,[2]; Konz. 0.1 µM,3.3%
same,G1/G0 %,[2]; Konz. 0.1 µM,50.6%
same,G2/M %,[2]; Konz. 0.1 µM,21.9%
same,S %,[2]; Konz. 0.1 µM,24.6%
same,Debris %,[2]; Konz. 0.5 µM,24.5%
same,G1/G0 %,[2]; Konz. 0.5 µM,16.7%
same,G2/M %,[2]; Konz. 0.5 µM,41.5%
same,S %,[2]; Konz. 0.5 µM,15.6%
same,Debris %,[2]; Konz. 1.0 µM,19.1%
same,G1/G0 %,[2]; Konz. 1.0 µM,6.1%
same,G2/M %,[2]; Konz. 1.0 µM,64.2%
same,S %,[2]; Konz. 1.0 µM,10.3%
"CCCCc1ccc2[nH]c(-c3ccc(C(F)(F)F)cc3)c(C=C(C#N)C#N)c2c1 [Verbindung 13, {5-Butyl-2-[4-(trifluormethyl)-phenyl]-indol-3-yl}methylenpropandinitril]",IC50,[1],56 nM
same,Debris %,[2]; Konz. 0.01 µM,2.9%
same,G1/G0 %,[2]; Konz. 0.01 µM,52.7%
same,G2/M %,[2]; Konz. 0.01 µM,22.1%
same,S %,[2]; Konz. 0.01 µM,22.9%
same,Debris %,[2]; Konz. 0.05 µM,3.0%
same,G1/G0 %,[2]; Konz. 0.05 µM,52.3%
same,G2/M %,[2]; Konz. 0.05 µM,22.1%
same,S %,[2]; Konz. 0.05 µM,22.6%
same,Debris %,[2]; Konz. 0.1 µM,13.3%
same,G1/G0 %,[2]; Konz. 0.1 µM,52.6%
same,G2/M %,[2]; Konz. 0.1 µM,12.2%
same,S %,[2]; Konz. 0.1 µM,22.3%
same,Debris %,[2]; Konz. 0.5 µM,5.5%
same,G1/G0 %,[2]; Konz. 0.5 µM,5.4%
same,G2/M %,[2]; Konz. 0.5 µM,76.3%
same,S %,[2]; Konz. 0.5 µM,9.2%
"COc1ccc(-c2[nH]c3ccccc3c2C=C(C#N)C#N)cc1 [Verbindung 11, [2-(4-Methoxyphenyl)-indol-3-yl]-methylenpropandinitril]",IC50,[1]; Homo sapiens,720 nM
"CCCc1ccc2[nH]c(-c3ccc(OC)cc3)c(C=C(C#N)C#N)c2c1 [Verbindung 5, [2-(4-Methoxyphenyl)-5-n-propyl-indol-3-yl]-methylenpropandinitril]",IC50,[1]; Homo sapiens,83 nM
"CCCCc1ccc2[nH]c(-c3ccc(C(F)(F)F)cc3)c(C=NNC(N)=O)c2c1 [Verbindung 30, 5-Butyl-2-[4-(trifluormethyl)-phenyl]-indol-3-carbaldehyd-semicarbazon]",IC50,[1],850 nM
"COc1ccc(-c2[nH]c3cc(OC)ccc3c2C=C(C#N)C#N)cc1 [Verbindung 10, [6-Methoxy-2-(4-methoxyphenyl)-indol-3-yl]methylenpropandinitril]",IC50,[1]; Homo sapiens,260 nM
"CCCCCCc1ccc2[nH]c(-c3ccc(C(F)(F)F)cc3)c(C=C(C#N)C#N)c2c1 [Verbindung 17, {5-Hexyl-2-[4-(trifluormethyl)phenyl]-indol-3yl}-methylenpropandinitril]",IC50,[1],150 nM
"CCCCc1ccc2[nH]c(-c3ccc(CC)cc3)c(C=NNCc3cccnc3)c2c1 [Verbindung 26, 5-Butyl-2-(4-ethylphenyl)-indol-3-carbaldehyd-nicotinylhydrazon]",IC50,[1]; Homo sapiens,53 nM
same,Debris %,[2]; Konz. 0.01 µM,3.2%
same,G1/G0 %,[2]; Konz. 0.01 µM,51.0%
same,G2/M %,[2]; Konz. 0.01 µM,26.3%
same,S %,[2]; Konz. 0.01 µM,20.2%
same,Debris %,[2]; Konz. 0.05 µM,2.8%
same,G1/G0 %,[2]; Konz. 0.05 µM,51.3%
same,G2/M %,[2]; Konz. 0.05 µM,22.9%
same,S %,[2]; Konz. 0.05 µM,23.7%
same,Debris %,[2]; Konz. 0.1 µM,3.4%
same,G1/G0 %,[2]; Konz. 0.1 µM,49.2%
same,G2/M %,[2]; Konz. 0.1 µM,25.5%
same,S %,[2]; Konz. 0.1 µM,23.0%
same,Debris %,[2]; Konz. 0.5 µM,12.2%
same,G1/G0 %,[2]; Konz. 0.5 µM,9.6%
same,G2/M %,[2]; Konz. 0.5 µM,66.9%
same,S %,[2]; Konz. 0.5 µM,11.4%
"CCCCc1ccc2[nH]c(-c3ccc(OC)cc3)c(C=C(C#N)C#N)c2c1 [Verbindung 7, [5-n-Butyl-2-(4-methoxyphenyl)-indol-3-yl]-methylenpropandinitril]",IC50,[1]; Homo sapiens,13 nM
same,IC50,"[3]; Homo sapiens, MCF7",13 nM
